SMILES strings stand for the structures. Read-outs that look alike come from different tables or passages of the source.

The test system of one assay is IL6. Kind of assay: IL-6 Quantification Assay (ELISA), LPS-stimulated RAW 264.7. It counts as cell-based. More on the design: inhibition: dose or concentration left out as unconfirmed. The following applies: Mus musculus, RAW264.7; read-out: IL-6: % inh. (In general: An ELISA detects its analyte on a solid surface through an enzyme-linked reagent.)
Assay [1] concerns MiaPaca-2 (expressing KRAS G12C mutant). Kind of assay: Proliferation Assay (Cell Viability Assay). It counts as cell-based. The following applies: Homo sapiens, MIA PaCa-2. The method, then:
Protocol for Proliferation Assay
This assay is referred to as the “Proliferation Assay” or “Cell Viability Assay” throughout this application.
Cell lines: Human tumor-derived cell lines were purchased from American Type Culture Collection. Human tumor-derived pancreatic cancer cell line MiaPaca-2 (expressing KRAS G12C mutant) and Panc-1 (expressing KRas G12D mutant), and Human non-small cell lung cancer (NSCLC) cell line A549 (expressing KRas G12S mutant) were grown in complete DMEM-High Glucose medium. Human colon cancer cell line SW-620 (expressing KRas G12V mutant) was grown in RPMI 1640 medium. All cell lines were supplemented with penicillin (100 U/mL), streptomycin (100 μg/mL), and 10% heat-inactivated FBS at 37° C. in a humidified incubator with 5% CO2.
Method: Cells were plated at 2000 to 5000 cells/well density in 96-wells plate and cultured overnight. Small molecules to be tested were added to the cells in the final concentration of 10 μM in the presence of 0.3% DMSO and 10% FBS and incubated for 2-4 days at 37° C. in a humidified incubator with 5% CO2. For IC50 value determination, serial dilutions of compounds were added to cells under the same conditions.
Assay: At the end of the incubation period, cell viability was determined using the CellTiter 96® Aqueous One Solution Cell Proliferation Assay according to manufacturer specifications (Promega, Madison, WI). The percentage of small molecules inhibition of cellular proliferation was calculated from raw data.
Cell lines: these Human tumor-derived cell lines were purchased from American Type Culture Collection. Human tumor-derived pancreatic cancer cell line MiaPaca-2 (expressing KRAS G12C mutant) and Panc-1 (expressing KRas G12D mutant), and Human non-small cell lung cancer (NSCLC) cell line A549 (expressing KRas G12S mutant), and Human melanoma cell line A375 (wild type Kras) were grown in complete DMEM-High Glucose medium. Human tumor-derived pancreatic cancer cell lines SU86.86 (expressing KRas G12D mutant), BxPC3 (expressing wild type K-Ras), and Human non-small cell lung cancer (NSCLC) cell lines NCI-H441 (expressing KRas G12S mutant), NCI-H1975 (expressing wild type KRas), NCI-H358 (expressing KRas G12C mutant), NCI-H1299 (expressing NRas Q61H mutant), and Human colon cancer cell line SW-620 (expressing KRas G12V mutant), Human triple negative breast cancer cell line HCC-1806 (expressing wild type KRas), and Human tumor-derived multiple myeloma cell line MM.1R (expressing wild type KRAS), were grown in RPMI 1640 medium. Human tumor-derived breast cancer cell line BT-549 (expressing wild type KRAS) was grown in RPMI 1640 medium in the presence of 11.8U insulin. Human tumor-derived pancreatic cancer cell line HPAF-II (expressing KRas G12D mutant), Human triple negative breast cancer cell line BT-20 (expressing wild type KRas), and Human colon cancer cell line LS123 (expressing KRas G12S mutant), were grown in EMEM medium. Human tumor-derived pancreatic cancer cell line CF-PAC1 (expressing KRas G12V mutant) was frown in IMDM medium, and Human colon cancer cell line HT29 (expressing wild type KRas) was grown in McCoy's 5A medium. The colon cancer cell line GP2d (expressing KRas G12D mutant) was purchased from MilliporeSigma and grown in DMEM-High Glucose medium. All cell lines were supplemented with penicillin (100 U/mL), streptomycin (100 μg/mL), and 10% heat-inactivated FBS at 37° C. in a humidified incubator with 5% CO2.
Method: Cells were plated at 2000 to 5000 cells/well density in 96-wells plate and cultured overnight. Small molecules that were tested were added to the cells in the final concentration of 10 μM in the presence of 0.3% DMSO and 10% FBS, and incubated for 2-4 days at 37° C. in a humidified incubator with 5% CO2. For IC50 value determination, serial dilutions of compounds were added to cells under the same conditions.

In a further assay the test system is Akt phosphorylation. Put plainly: Akt Phosphorylation Assay (western blot), Panc-1. The following applies: at 10 μM, * = activation. It counts as cell-based, human. The method, then: Protocol for Western Akt Cell-Based Phosphorylation Assay
This assay is referred to as the “Akt Phosphorylation Assay” throughout this application.
Human tumor-derived pancreatic cancer cell line Panc-1 (expressing KRas G12D mutant) was purchased from American Type Culture Collection and grown in complete DMEM-High Glucose supplemented with penicillin (100 U/mL), streptomycin (100 μg/mL), and 10% heat-inactivated FBS at 37° C. in a humidified incubator with 5% CO2.
Method 1: Cells were plated at 350000 cells/well density in a 12-well plate, allowed 3 hours to adhere to the plate, then starved in the appropriate medium in the presence of 0.5% FBS overnight. The small molecules to be tested were added to the cells in the final concentration of 10 μM in the presence of 0.3% DMSO for 6 hours incubation at 37° C. Next, cells were stimulated with 1.5 ng/ml EGF for 15 minutes then cells were lysed with lysis buffer containing 1% Triton X-100, EDTA, and Halt™ Protease & Phosphatase Inhibitor Cocktail (Thermo Scientific). Protein concentration was assessed by BCA protein assay (Thermo Scientific). Phosphorylation level of Akt was determined by western blot.
Method 2: Cells were plated at 350000 cells/well density in a 12-well plate in 10% FBS. The next day small molecules to be tested were added to the cells in the final concentration of 10 μM in the presence of 0.3% DMSO for 6 hours incubation at 37° C. For IC50 value determination, serial dilutions of compounds were added to cells under the same conditions. Next, cells were lysed with lysis buffer containing 1% Triton X-100, EDTA, and Halt™ Protease & Phosphatase Inhibitor Cocktail (Thermo Scientific). Protein concentration was assessed by BCA protein assay (Thermo Scientific). Phosphorylation level of Akt was determined by western blot.
Western blot protocol: Equal amounts of protein (15-50 μg) were separated by SDS-PAGE and transferred to nitrocellulose membranes (Invitrogen by Thermo Fisher Scientific). The membrane was stained with Ponceau S Stain (Boston BioProducts) to verify uniform protein loading. Membranes were blocked with 10% milk and phosphorylation levels of Akt were assessed by incubating overnight at 4° C. with anti-phospho-Akt (Ser473) antibody (Cell Signaling) followed by HRP-conjugated secondary antibody (Jackson Immunoresearch, West Grove, PA). Bands were incubated in Amersham ECL Prime Western Blotting Detection Reagent (GE Healthcare) and visualized using the ChemiDoc MP imaging system (Bio-Rad).
(In general: Immunoblotting shows a protein as a band on a membrane.)

Another assay deals with TNF-alpha. Put plainly: TNF-alpha Quantification Assay (ELISA), LPS-stimulated RAW 264.7. It counts as cell-based. The following applies: Mus musculus, RAW264.7; at 10 μM; read-out: TNFα: % inh.
Setting [2] is: read-out: Proliferation in MiaPaca-2: IC50.

Regarding `COc1cc(-c2cn3nc(-c4nccn4C)nc(N[C@@H]4CC[C@@H](OC)C4)c3c2C)ccn1` (racemic) [Compound 163, rac N-((1R,3R)-3-Methoxycyclopentyl)-6-(2-methoxypyridin-4-yl)-5-methyl-2-(1-methyl-1H-imidazol-2-yl)pyrrolo[2,1-f][1,2,4]triazin-4-amine], in the assay with IL6, the inhibition fell in the range of 75 to 100%. In assay [1] (setting [2]), the IC50 was greater than 1000 nM. Moreover, the “% inh of Akt phosphorylation in Panc-1” value with Akt phosphorylation is given as “A* (1-25% activation)”. Also, the inhibition at 10 µM in the assay with TNF-alpha is 1 to 24%.
On the same counts, the results for `COc1ccnc(Nc2nc(-c3nccn3C)nn3cc(-c4cccnc4)c(C)c23)c1` [Compound 157, N-(4-Methoxy-pyridin-2-yl)-5-methyl-2-(1-methyl-1H-imidazol-2-yl)-6-(pyridin-3-yl)pyrrolo[2,1-f][1,2,4]triazin-4-amine] are 1 to 24%, less than 150 nM, “D* (85-100% activation)” and 0%.
On the same counts, the results for `COc1ccnc(Nc2nc(-c3nccn3C)nn3cc(-c4ccn(C5CC5)n4)c(C)c23)c1` [Compound 137, 6-(1-Cyclopropyl-1H-pyrazol-3-yl)-N-(4-methoxypyridin-2-yl)-5-methyl-2-(1-methyl-1H-imidazol-2-yl)pyrrolo[2,1-f][1,2,4]triazin-4-amine] are 1 to 24%, less than 150 nM, “D* (85-100% activation)” and 1 to 24%.
Turning to `Cc1c(-c2ccn(C)n2)cn2nc(-c3nccn3C)nc(Nc3cc4n(n3)CCC4)c12` [Compound 100, N-(5,6-Dihydro-4H-pyrrolo[1,2-b]pyrazol-2-yl)-5-methyl-2-(1-methyl-1H-imidazol-2-yl)-6-(1-methyl-1H-pyrazol-3-yl)pyrrolo[2,1-f][1,2,4]triazin-4-amine], in the assay with IL6, the inhibition was in the range of 50 to 74%. In addition, the IC50 was 1 to 10 nM in assay [1] (Proliferation assay, MiaPaca-2, read-out: MiaPaca-2 IC50 (nM) Pancreatic) and less than 150 nM in assay [1] (setting [2]). For the same molecule, the “% inh of Akt phosphorylation in Panc-1” value in the assay on Akt phosphorylation is listed as “D* (85-100% activation)”. Also, the inhibition at 10 µM with TNF-alpha turned out to be 0%.
Regarding `Cc1c(-c2ccn(C)n2)cn2nc(-c3nccn3C)nc(Nc3cc(OC(F)F)ccn3)c12` [Compound 128, N-(4-(Difluoromethoxy)pyridin-2-yl)-5-methyl-2-(1-methyl-1H-imidazol-2-yl)-6-(1-methyl-1H-pyrazol-3-yl)pyrrolo[2,1-f][1,2,4]triazin-4-amine], the inhibition with IL6 was in the range of 25 to 49%. Further, the IC50 in assay [1] (setting [2]) was less than 150 nM. Besides, the “% inh of Akt phosphorylation in Panc-1” value with Akt phosphorylation is “D* (85-100% activation)”. Further, the inhibition at 10 µM with TNF-alpha fell in the range of 25 to 49%.
In the case of `Cc1c(-c2ccn(C(C)C)n2)cn2nc(-c3nccn3C)nc(Nc3nccc(OCCO)n3)c12` [Compound 121, 2-((2-((6-(1-Isopropyl-1H-pyrazol-3-yl)-5-methyl-2-(1-methyl-1H-imidazol-2-yl)pyrrolo[2,1-f][1,2,4]triazin-4-yl)amino)pyrimidin-4-yl)oxy)ethan-1-ol], in the assay on IL6, the inhibition fell in the range of 50 to 74%. For the same molecule, the IC50 in assay [1] (setting [2]) was 510 to 1000 nM. Further, the “% inh of Akt phosphorylation in Panc-1” value in the assay on Akt phosphorylation is “B* (26-49% activation)”. The inhibition at 10 µM in the assay with TNF-alpha lay within 25 to 49%.
Take `COCCO[C@H]1C[C@H](Nc2nc(-c3nccn3C)nn3cc(-c4ccn(C)n4)c(C)c23)C1` [Compound 130, N-((1r,3r)-3-(2-Methoxyethoxy)cyclobutyl)-5-methyl-2-(1-methyl-1H-imidazol-2-yl)-6-(1-methyl-1H-pyrazol-3-yl)pyrrolo[2,1-f][1,2,4]triazin-4-amine]: in the assay with IL6, the inhibition came to 0%. Also, the IC50 in assay [1] (setting [2]) was greater than 1000 nM. In the assay on Akt phosphorylation, the “% inh of Akt phosphorylation in Panc-1” value is listed as “D* (85-100% activation)”. The inhibition at 10 µM with TNF-alpha was in the range of 1 to 24%.
On the same counts, the results for `Cc1c(-c2ccn(C(C)C)n2)cn2nc(-c3nccn3C)nc(Nc3nccc(OCCN(C)C)n3)c12` [Compound 96, N-(4-(2-(Dimethylamino)ethoxy)pyrimidin-2-yl)-6-(1-isopropyl-1H-pyrazol-3-yl)-5-methyl-2-(1-methyl-1H-imidazol-2-yl)pyrrolo[2,1-f][1,2,4]triazin-4-amine] are 50 to 74%, 150 to 500 nM, “D* (85-100% activation)” and 0%.
On the same counts, the results for `Cc1c(-c2ccn(C)n2)cn2nc(-c3nccn3C)nc(Nc3cn(C(C)C)nn3)c12` [Compound 109, N-(1-Isopropyl-1H-1,2,3-triazol-4-yl)-5-methyl-2-(1-methyl-1H-imidazol-2-yl)-6-(1-methyl-1H-pyrazol-3-yl)pyrrolo[2,1-f][1,2,4]triazin-4-amine] are 50 to 74%, 510 to 1000 nM, “D* (85-100% activation)” and 0%.
On the same counts, the results for `COc1ccnc(Nc2nc(-c3nccn3C)nn3cc(-c4cccnc4)c(C)c23)n1` [Compound 158, N-(4-Methoxy-pyrimidin-2-yl)-5-methyl-2-(1-methyl-1H-imidazol-2-yl)-6-(pyridin-3-yl)pyrrolo[2,1-f][1,2,4]triazin-4-amine] are 1 to 24%, less than 150 nM, “D* (85-100% activation)” and 0%.

The values are drawn from US12459951B2, “Compounds that interact with RAS superfamily proteins for treatment of cancers, inflammatory diseases, rasopathies, and fibrotic disease” (SHY Therapeutics, LLC, priority 2022, dated 2025).
